Experimental data taken from patent US20240101538A1, “PROTEIN-PROTEIN INTERACTION MODULATORS OF AURORA KINASE A AND THEIR USE IN THE PREVENTION AND/OR TREATMENT OF CANCER” (EBERHARD KARLS UNIVERSITÄT TÜBINGEN, priority 2020, published 2024).
Where two headings read alike, the source gives them in different places.

What was measured:
NMP53^−/− cells [1] = assay: Colony formation assay on NMP53^−/− cells; type: cell-based, murine; conditions: for minimal effective concentration: Mus musculus, 120 h, 5 days, read-out: EC (NMP53^−/−)
From the text: To evaluate the effect of small molecules equipped with R-spine interacting moieties, the inventors screened a focused library of proprietary p38a MAP-Kinase inhibitors which were equipped with R-spine interacting pharmacophores. To this end, the inventors utilized a screening system as developed in Dauch et al.^2 The screening system is based on colony formation assays of cell lines isolated from Nras-driven, Trp53-deficient murine HCCs, whose development is dependent on MYC (NMP53^−/− cells), as well as Nras-driven, Cdkn2a^ARF-deficient murine HCCs, which develop independently of MYC (NMCdkn2a^ARF−/− cells). Importantly, NMP53^−/− cells are sensitive to AURKA inhibitors, which induce a conformational shift in AURKA, whereas NMCdkn2a^ARF−/− are not sensitive to such compounds.
For Colony Formation Assays, cells were seeded at a density of 50 000 cells per 6 well and next day treated with a 2-fold dilution series of the indicated compounds or the highest corresponding DMSO concentration as control. After 5 days, the cells were fixed with a 10% formaldehyde solution for 30 min, washed once with water, stained with a 0.5% crystal violet solution for 30 min and washed twice with water. The compounds effective concentration (EC) was determined according to the lowest concentration in the dilution series, that inhibited cell growth substantially. The resulting benzamide containing hit structure 1, with a twofold selectivity towards NMP53^−/− cells (effective concentration on NMP53^−/− cells (EC): 2 μM, EC on Cdkn2a^ARF−/−: 4 μM, FIG. 1), served as the inventors' starting point for further compound development.

NMP53^−/− cells [2] = assay: Cell viability assay (XTT-Assay); type: cell-based, murine; conditions: 3 days treatment, read-out: cellular IC50
Experimental: (A) Colony formation assay of a tumor cell line (NMP53^−/− cells), incubated for 5 days with compound 3a [N-(2-fluoro-5-((4-(1-methyl-1H-pyrazole-4-yl)benzyl)amino)phenyl)-3-(furan-2-yl)-propanamide] as indicated, fixed and stained with crystal violet. (B) Viability measurement (XTT assay) of a tumor cell line (NMP53^−/− cells) treated for 3 days with a series of concentrations of compound 3a according to this invention. […] (C) Determination of the percentage of cell death (by means of propidium iodide staining) of a tumor cell line (NMP53^−/− cells) treated with compound 3a for 5 days.
The cell viability assay (XTT-Assay) was used to determine cellular IC50 values. 1 000 cells were seeded per 96 well and treated with a 2-fold dilution series of the compounds on the next day. As a control, the cells were treated with DMSO according to the highest compound concentration (negative control) or 1.5 mM chloroquine (positive control). 3 days after treatment with the respective compound, or DMSO/chloroquine as a control, the XTT Assay was conducted according to the manufacturer's instructions (Invitrogen, X6493). The absorbance was measured with the Infinite M Plex plate reader (Tecan) at 450 nm. The IC50 was calculated by variable slope nonlinear regression utilizing GraphPad Prism 8.4.0 software (GraphPad Software, La Jolla, CA), with the DMSO treated cells resembling 100% cell viability and the chloroquine treated cells resembling o % cell viability.

Aurora A = Aurora A (Homo sapiens (Human), UniProt O14965); assay: ADP-Glo Kinase Assay with Aurora A Kinase Enzyme System; type: biochemical; conditions: compounds tested from 1 μM
Sequence of Aurora A (O14965 whole entry): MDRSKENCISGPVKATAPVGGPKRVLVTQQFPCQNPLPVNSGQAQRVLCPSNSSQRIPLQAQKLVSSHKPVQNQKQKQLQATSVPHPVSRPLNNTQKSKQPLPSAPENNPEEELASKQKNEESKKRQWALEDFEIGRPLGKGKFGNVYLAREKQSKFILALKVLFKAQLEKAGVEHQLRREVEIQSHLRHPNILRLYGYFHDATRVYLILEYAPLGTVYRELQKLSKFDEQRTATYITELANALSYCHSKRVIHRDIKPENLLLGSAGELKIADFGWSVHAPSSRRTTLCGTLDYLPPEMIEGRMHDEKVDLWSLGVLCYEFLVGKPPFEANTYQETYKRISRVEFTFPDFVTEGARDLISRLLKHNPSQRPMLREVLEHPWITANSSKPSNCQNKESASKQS
Experimental: To measure the effect of the compounds on the activity of AURKA, the IC50 of the compounds was determined with the ADP-Glo™ Kinase Assay (Promega, V9101) and the Aurora A Kinase Enzyme System (Promega, V1931). The assay was performed according to the manufacturer's instructions in a white 384-well plate format (Corning Assay Plate, LOT 32216024) by using 1.4 ng/μl Aurora A, […] and 0.1 μg/μl myelin basic protein (MBP) substrate in a total volume of 6 μl (transferred with Integra viaflo 96/384 handheld channel pipette). To generate a dose-response curve, a 3-fold serial dilution of the compounds was tested starting from 1 μM. The kinase was pre-incubated for 10 min at RT with the respective compound, before the substrate mix containing MBP and ATP was added. After 60 min at RT, 6 μl of the ADP-Glo reagent were added and incubated for another 60 min at RT. Afterwards 12 μl of the detection reagent were added and incubated for 30 min at RT before the luminescence was measured with an integration time of 500 ms by using a Filter Max F5 multi-mode microplate reader from Molecular Devices. As a negative control, the reaction was performed with MBP, ATP and Aurora A only. […]

320 wildtype kinases = assay: Kinome screen with 320 wildtype kinases; type: biochemical
[3] = target: interaction of AURKA with TPX2 (Homo sapiens (Human), UniProt O14965); assay: Co-immunoprecipitation of FLAG-AURKA and western blot for TPX2; type: cell-based, murine; conditions: Co-IP with anti-FLAG, NMP53^−/− cells synchronized with nocodazole
Sequence of interaction of AURKA with TPX2 (O14965 whole entry, looked up): as the sequence (O14965 whole entry) above
Sequence of interaction of AURKA with TPX2 (A2APB8 whole entry partner, looked up): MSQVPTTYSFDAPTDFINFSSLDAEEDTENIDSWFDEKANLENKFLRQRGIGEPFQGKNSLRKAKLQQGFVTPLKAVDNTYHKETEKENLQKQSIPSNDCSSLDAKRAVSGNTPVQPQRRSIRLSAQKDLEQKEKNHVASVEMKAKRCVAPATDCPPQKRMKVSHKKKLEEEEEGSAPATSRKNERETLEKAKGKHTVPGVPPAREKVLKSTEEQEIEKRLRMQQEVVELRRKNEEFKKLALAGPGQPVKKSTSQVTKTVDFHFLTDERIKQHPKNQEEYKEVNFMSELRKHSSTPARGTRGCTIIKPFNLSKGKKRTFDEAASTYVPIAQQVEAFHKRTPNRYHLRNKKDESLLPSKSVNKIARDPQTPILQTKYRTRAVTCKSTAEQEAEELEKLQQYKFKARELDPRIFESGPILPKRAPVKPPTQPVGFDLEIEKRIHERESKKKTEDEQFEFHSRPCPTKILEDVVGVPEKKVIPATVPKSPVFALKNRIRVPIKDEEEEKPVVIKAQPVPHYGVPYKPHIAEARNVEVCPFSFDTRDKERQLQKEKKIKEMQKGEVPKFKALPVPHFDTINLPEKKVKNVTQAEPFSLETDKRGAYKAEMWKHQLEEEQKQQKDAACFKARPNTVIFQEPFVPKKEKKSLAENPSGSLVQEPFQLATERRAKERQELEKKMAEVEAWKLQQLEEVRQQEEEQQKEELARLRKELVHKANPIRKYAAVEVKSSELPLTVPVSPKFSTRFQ
Experimental: Tumor cells (NMP53^−/− cells) expressing a doxycycline-inducible FLAG-AURKA construct were kept on doxycycline for 24 hours, synchronized with 50 ng/ml nocodazole for 6 hours and treated with two of the developed compounds or DMSO as a control. In particular, the top “AURKA-Ligand” refers to compound 3a [N-(2-fluoro-5-((4-(1-methyl-1H-pyrazole-4-yl)benzyl)amino)phenyl)-3-(furan-2-yl),propanamide], and the bottom “AURKA-Ligand” refers to compound 2c [N-(5-((4-(1H-pyrazole-4-yl)benzyl)amino)-2-fluorophenyl)-3-(furan-2-yl)propanamide]. Co-immunoprecipitations (Co-IP) were carried out with an antibody against FLAG. A DMSO-treated sample without FLAG-AURKA induction served as a control. The AURKA and TPX2 levels of the Co-IP samples and their input were determined by western blotting.
Tumor cells (NMP53/cells) expressing a doxycycline-inducible FLAG-AURKA construct were kept on doxycycline for 24 hours, synchronized with 50 ng/ml nocodazole for 6 hours and treated with two of the developed compounds of this invention (3a and 2c), or DMSO as a control. Then, co-immunoprecipitations (Co-IP) were carried out with an antibody against FLAG. A DMSO-treated sample without FLAG-AURKA induction served as a control. The AURKA and TPX2 levels of the Co-IP samples and their input were determined by western blotting.

[4] = colony formation assay, lowest concentration of 2-fold dilution series that inhibited cell growth substantially

IC50 (Aurora A; read-out: IC50 (AURKA)) [nM] | interaction of AURKA with TPX2 [3] | IC50 (AURKA) (Aurora A) | Structure (SMILES) | higher cellular activity compared to the initial hit 1 (NMP53^−/− cells [1]; EC on NMP53^−/− cells) | increased efficacy compared to compound 2a (NMP53^−/− cells [1]; EC on NMP53^−/− cells) [fold] | minimal effective concentration (NMP53^−/− cells [1]; [4]) [µM] | minimal effective concentration (NMP53^−/− cells [1]; colony formation assay) [µM] | selectivity for NMP53^−/− cells (NMP53^−/− cells [1]; NMP53^−/− versus NMCdkn2a^ARF−/− cells, colony formation assay) | IC50 (NMP53^−/− cells [2]; Mus musculus, 72 h) [nM] | off-targets in kinome screen (320 wildtype kinases; 100 nM) | selectivity score (320 wildtype kinases; 500 nM) | IC50 (NMP53^−/− cells [2]) [nM] | inhibition in kinome screen (320 wildtype kinases; 320 wildtype kinases)
259 | largely enhance |  | O=C(CCc1ccco1)Nc1cc(NCc2ccc(-c3cn[nH]c3)cc2)ccc1F [Compound 2c, N-(5-((4-(1H-pyrazole-4-yl)benzyl)amino)-2-fluorophenyl)-3-(furan-2-yl)propanamide] | up to 16 fold | 4 | 0.125 | 0.125 | up to 8 fold | 60 | no off-targets | 0.019 |  | 
 | largely enhance | no kinase inhibition | Cn1cc(-c2ccc(CNc3ccc(F)c(NC(=O)CCc4ccco4)c3)cc2)cn1 [Compound 3a, N-(2-fluoro-5-((4-(1-methyl-1H-pyrazole-4-yl)benzyl)amino)phenyl)-3-(furan-2-yl)propanamide] |  |  | 0.031 | 0.031 |  | 14 |  |  | 13 | overall no inhibition
